Assay results as given in patent EP0960886B1, “Peptide T and related peptides in the treatment of inflammation, including multiple sclerosis” (priority 1992, dated 1993).
Values joined by “and” are separate entries in the source; they are usually repeats but may differ in a detail not shown here. Identical values can stand only once. “Also recorded” adds a separate entry of the source.

Columns and labels:
[1] = test system: mouse foetal hippocampal neurons; conditions: cited from earlier work
PBMC [2] = assay: Mixed lymphocyte reaction (Example 13); format: cell-based, human
gp120 = conditions: rat hippocampal membranes; cited from earlier work
PBMC [3] = assay: Mitogen-induced lymphoproliferation (Example 12); format: cell-based, human
Experimental: Concanavalin A (Con A), pokeweed mitogen, (PWM) and phytohaemagglutin-P (PHA-P) were obtained from Sigma Chemical Co. (St. Louis, MO, USA). Peptide T was synthesised by Carlbiotech Ltd (Copenhagen, Denmark) and supplied as the chloride salt at 8.5 mg/ml in 0.9% benzyl alcohol as a preservative and was stored at 4°C. Peptide T was diluted to working solutions in culture medium (RPMI). Dilute solutions of Peptide T were prepared fresh from stock Peptide T for each experiment. ^3H-thymidine (5 Ci/mmol) was obtained from Amersham.
Isolation of PBMC: Whole blood from healthy, adult volunteers was drawn into heparin and peripheral blood mononuclear cells (PBMC) isolated by density gradient centrifugation on HISTOPAQUE™ (Sigma Chemical Co). PBMC were removed from the interface, washed three times in RPMI containing gentamycin (100µg/ml) and resuspended to 1x10^6 PBMC/ml in RPMI containing 10% foetal bovine serum and gentamycin. 10^5 PBMC were cultured in the presence of 100µl of mitogen suspension in 96 well plates. The final concentration of mitogen was: PWM 25µg/ml; PHA 12.5µg/ml and Con A 6.25µg/ml. 10µl of Peptide T working solution (or RPMI as negative control) was added and cell cultures incubated for a total of 5 days in a humid atmosphere, 5% CO2, 37°C. Cultures were then pulsed with ^3H-thymidine (in RPMI) 18-24 hours prior to harvesting. The amount of incorporated ^3H-thymidine was determined using a BECKMAN™ LS8000 liquid scintillation counter and proliferation expressed as either counts per minute (cpm) or as a proliferation index (PI). PI=(cpm of (PBMC+mitogen))/(cpm of (PBMC+media)) [formula]
All experiments were performed in triplicate. Results reported are characteristic of replicated experiments.
Statistical Analyses: Data were analysed by a two sample ANOVA test using 95% confidence limits such that a value of p≤0.05 was considered a significant difference.

[4] = Health-related quality of life and symptom assessment in MS patients (MS-modified MOS-HIV, PGWB, MS Symptom Checklist); format: in vivo, human
From the text: To evaluate the impact of drug-related change on overall health and symptom burden, MS patients were followed routinely with both recognized and newly developed health-related quality of life instruments: an MS-modified version of the 30-item Medical Outcomes Study-HIV Survey (MOS-HIV) originally developed by Dr. Albert Wu, the 22-item Psychological General Well-Being Schedule (PGWB) developed by Dr. Harold Dupuy, and the MS Symptom Checklist developed for this study. These instruments, of which the first two have previously been validated and shown to be responsive to change in other disease states, allow quantitation of self-reported symptom variation (see Brook et al., Medical Care 17(7 Suppl.) 1-54 (1979), Fazio "A Concurrent Validation Survey of the NCHS General Well-Being Schedule", US Dept of Health, Education and Welfare, National Center for Health Statistics, Hyattsville, Maryland, USA 1977, McDowell and Newell "Measuring Health: A Guide to Rating Scales and Questionnaires", Oxford University Press 1987, Stewart et al., Medical Care 26 724-35 (1988), JAMA 262 907-13 (1989), and "Measuring Functioning and Well-Being of Patients with Chronic Conditions: The Medical Outcomes Study Approach", Duke University Press 1992, Wachtel et al., Ann. Int. Med. 116 129-137 (1992), Ware et al., "Conceptualization and Measurement of Health for Adults in the Health Insurance Survey, Vol III: Mental Health", Rand Corporation 1979, and Wu et al., Medical Care 29(8) 786-98 (1991)).
Given the small number of patients involved in this report, some of whom received Peptide T in an on-off-on design, it would not be expected that statistical significance might be obtained. To facilitate establishment of any trends, three patients who stopped taking Peptide T and then restarted the drug some weeks later after a new baseline period appear twice in the following analysis. In this manner, 8 baseline and repeated measures (at weeks 0, 4, 8, and 12) were defined and analysed using two-tailed paired t-tests: see Table XIV.

IL-1 = assay: Serum IL-1 by RIA in patients with HIV disease; format: in vivo, human; conditions: one line per patient with HIV disease
From the text: However, neopterin levels were elevated prior to Peptide T administration whereas serum IL-1 levels were normal.

human neutrophils = assay: TNF-induced neutrophil chemiluminescence (lucigenin-dependent); format: cell-based; conditions: Figure 10
Experimental: Neutrophils. Neutrophils were isolated from whole blood from healthy blood donors. Separation was achieved by the rapid-single-step method of centrifugation of whole blood on FICOLL-HYPAQUE™. These were >99% viable and usually >98% pure.
Peptides and TNF. TNF was a recombinant product produced in E. coli. Peptide T and analogue 505 (D-Ser-Ser-D-Thr-Thr-D-Thr-Thr-Tyr-D-Thr) were resuspended in Hank's Balanced Salt Solution (HBSS).
To 100µl of 500-1000U/ml of TNF was added 10µl of peptide and after 5 min 100µl of 1x10^7 neutrophils/ml was added. The cells further incubated at 37°C/20 min and then tested for chemiluminescence activity. In some cases an agonist such as fMLP (10^-7M) was added. Chemiluminescence was measured in a luminometer (LKB). The results for Peptide T are presented in Figure 12 as peak rate of CL release. Lucigenin-dependent chemiluminescence was measured: this represents superoxide measurement. In another set of experiments the effects of analogue 505 on the LPS-induced neutrophil chemiluminescence were examined. In this case the LPS was essentially substituted for the TNF. The concentration of LPS was 0.005µg/ml.

## C[C@@H](N)C(=O)N[C@@H](CO)C(=O)N[C@H](C(=O)N[C@H](C(=O)N[C@H](C(=O)N[C@@H](CC(N)=O)C(=O)N[C@@H](Cc1ccc(O)cc1)C(=O)N[C@H](C(N)=O)[C@@H](C)O)[C@@H](C)O)[C@@H](C)O)[C@@H](C)O [Peptide T, D-Ala-Ser-Thr-Thr-Thr-Asn-Tyr-Thr-NH2]
[1]; CSF at 1:100,000 dilution, 44-49% killing without peptide
  neurotoxicity of CSF from a patient with AIDS dementia: inhibited
[1]; cultures of mouse foetal hippocampal neurons
  gp120-induced neurotoxicity: completely, antagonised
PBMC [2]
  growth of lymphocytes in a mixed lymphocyte reaction: did not affect
gp120
  concentrations that inhibit the binding of radiolabelled gp120: 0.1 nM
PBMC [3]; Con A stimulated, as little as
  concentration able to inhibit stimulated PBMC cultures: 0.001 pM
PBMC [3]; Con A-induced proliferation measured daily
  cytotoxicity for responding lymphocytes: not cytotoxic
PBMC [3]; Con A, Peptide T 1x10^-9 M added Day 1, no Peptide T 21.0 ± 5.7
  proliferation index ± standard deviation: 6.2 ± 0.5
PBMC [3]; Con A, Peptide T 1x10^-9 M added Day 2, no Peptide T 21.0 ± 5.7
  proliferation index ± standard deviation: 6.0 ± 1.1
PBMC [3]; Con A, Peptide T 1x10^-9 M added Day 3, no Peptide T 21.0 ± 5.7
  proliferation index ± standard deviation: 9.9 ± 0.1
PBMC [3]; Con A, Peptide T 1x10^-9 M added Day 4, no Peptide T 21.0 ± 5.7
  proliferation index ± standard deviation: 9.5 ± 1.6
PBMC [3]; PHA stimulated
  concentration able to inhibit stimulated PBMC cultures: 0.1 pM
PBMC [3]; PHA, Peptide T 1x10^-9 M added Day 1, no Peptide T 197 ± 3
  proliferation index ± standard deviation: 148 ± 13
PBMC [3]; PHA, Peptide T 1x10^-9 M added Day 2, no Peptide T 197 ± 3
  proliferation index ± standard deviation: 101 ± 7
PBMC [3]; PHA, Peptide T 1x10^-9 M added Day 3, no Peptide T 197 ± 3
  proliferation index ± standard deviation: 148 ± 7
PBMC [3]; PHA, Peptide T 1x10^-9 M added Day 4, no Peptide T 197 ± 3
  proliferation index ± standard deviation: 131 ± 10
PBMC [3]; PWM stimulated, as little as
  concentration able to inhibit stimulated PBMC cultures: 0.001 pM
PBMC [3]; PWM, Peptide T 1x10^-9 M added Day 1, no Peptide T 4.29 ± 0.25
  proliferation index ± standard deviation: 3.13 ± 0.21
PBMC [3]; PWM, Peptide T 1x10^-9 M added Day 2, no Peptide T 4.29 ± 0.25
  proliferation index ± standard deviation: 3.20 ± 0.20
PBMC [3]; PWM, Peptide T 1x10^-9 M added Day 3, no Peptide T 4.29 ± 0.25
  proliferation index ± standard deviation: 2.65 ± 0.17
PBMC [3]; PWM, Peptide T 1x10^-9 M added Day 4, no Peptide T 4.29 ± 0.25
  proliferation index ± standard deviation: 3.22 ± 0.28
PBMC [3]; exposure to Peptide T for 2 hours, cells washed before mitogen
  mitogen induced proliferation of PBMC after exposure and washing: inhibition of proliferation
PBMC [3]; growth period day 2-4, Peptide T 10^-9M, compared with growth in absence of the drug
  Con A-induced lymphocyte proliferation measured daily: paralleled, but at a reduced rate
PBMC [3]; no mitogen
  growth of PBMC in the absence of mitogen: negligible effects; also recorded: did not significantly affect
PBMC [3]; pre-incubation with Peptide T for less than 30 minutes
  mitogen stimulation of PBMC after pre-incubation: no effect
[4]; 4 and 8 weeks
  malaise: statistacally significant
[4]; human, in vivo
  forgetfulness and slowness in thinking: trend towards improvement
[4]; week 12, all three instruments
  Mean improvements in measures of energy: exceeded 2 standard deviations
[4]; weeks 4, 8 and 12
  physical discomfort, mental health and health distress (MS-modified MOS-HIV): either a trend or statistically significant improvement
[4]; weeks 4, 8 and 12 vs baseline, two-tailed paired t-tests
  energy, general quality of life, well-being and unweighted summary score (MS-modified MOS-HIV): Improvement was statistically significant
IL-1; post-Peptide T
  [IL-1]: 3.8 ± 0.12 fmol/100µl and 4.2 ± 0.07 fmol/100µl and 4.6 ± 0.11 fmol/100µl and 4.7 ± 0.05 fmol/100µl and 4.2 ± 0.02 fmol/100µl and 4.2 ± 0.26 fmol/100µl and 4.33 ± 0.003 fmol/100µl and 4.6 ± 0.02 fmol/100µl
IL-1; pre-Peptide T (baseline)
  [IL-1]: 3.5 ± 0.14 fmol/100µl and 5.23 ± 0.17 fmol/100µl and 4.1 ± 0.01 fmol/100µl and 4.1 ± 0.03 fmol/100µl and 3.7 ± 0.03 fmol/100µl and 4.2 ± 0.14 fmol/100µl and 3.9 ± 0.13 fmol/100µl and 4.35 ± 0.06 fmol/100µl
Human neutrophils
  activation of human neutrophils by TNF: inhibits activation of human neutrophils by TNF
